How the values were obtained:
Format in all cases: cell-based, human
PMNs [1] = test: PMN migration through fibrin gels in Boyden-type chemotaxis chambers
Procedure: (§1) Becton-Dickinson cell culture inserts (pore sizes 3 or 8 μm: Franklin Lakes, N.J.) were overlaid with the following proteins:
Fibrin gels: 1 Unit of thrombin (a gift from Dr. John Fenton, Albany Medical College, Albany, N.Y.), in 5 μl of PBS was added first to each insert. 0.1 ml phosphate buffered saline supplemented with Ca^2+ and Mg^2+ (PBS) containing 100 μg commercial grade fibrinogen (Calbiochem. Inc., San Diego, Calif.) or purified fibrinogen [a gift from Dr. Jeffery Weitz, (MacMaster University, Hamilton, On.)] was then placed into each 8.2 mm diameter insert on top of the thrombin. The mixture was incubated at 37° C. for 5 min to allow fibrin gel formation (determined by visual inspection). 1 Unit PPACK (Calbiochem Inc., San Diego, Calif.; 10^−5 M final concentration), in 100 μl medium was added to each insert to inhibit thrombin, and gels were washed with 250 μl PBS to remove inactivated thrombin. The fibrin gels formed were about 1 mm thick as measured under a dissecting microscope.
(§2) PMNs were prepared from fresh heparinized blood from healthy adult volunteers by sedimentation on Ficoll-Hypaque gradients. Contaminating red blood cells were removed by hypotonic lysis, as described (7). The purity of PMN isolated by this method is >95% as determined by Wright-Giemsa staining (7). 10^6 PMNs in 250 μl of PBS supplemented with 5.5 mM glucose and 0.1% human serum albumin (PBSG-HSA), were placed in the upper compartment of each insert and incubated for 0-6 hrs at 37° C. in a humidified atmosphere containing 95% air/5% CO2. At the times and concentrations specified, chemoattractants/cytokines were added to the top or bottom compartment in 250 μl of PBSG-HSA. At the end of the incubation, the chambers were shaken to dislodge PMNs from the lower surface of the inserts. The medium in each lower compartment was collected and its content of PMNs was determined using either a Coulter Counter or a hemocytometer. Both methods gave similar results. Counts are expressed as the average number of PMNs that migrated into the lower compartment. Unless otherwise indicated, all values reported are the average of six data points from at least 3 independent experiments.

monocytes [2] = test: Monocyte migration through collagen I coated inserts; conditions: collagen I alone, 24 h
Procedure: (§3) Cultured monocytes were prepared by allowing 10^7 total mononuclear cells, suspended in 10 ml of RMPI 1640 medium supplemented with 10% pooled human serum (1640+HS), or 10% autologous serum (1640+AS), to adhere to Falcon T-150 tissue culture Petri dishes for 2 h at 37° C. Non-adherent cells were removed by washing, leaving an adherent cell population consisting of greater than 98% monocytes as measured by their capacity to phagocytose IgG coated sheep red blood cells. For migration studies, monocytes were maintained in culture for 24 h in RPMI 1640+HS or AS, and detached from the dishes by gentle pipetting of 10 ml of ice cold phosphate buffered saline (without Ca^2+ or Mg^2+) containing 1.0 mM EDTA. The cells recovered were resuspended in RPMI-1640+HS as described (65).
Cell culture inserts containing polyethylene terephthalate filters, 8-μm pore size (Becton-Dickinson), were overlaid with 0.1 ml of Matrigel (20-25 μg protein/filter) (Collaborative Research, Bedford, Mass.), and incubated at room temperature until they dried. These Matrigel-coated filters were washed with phosphate buffered saline containing 1.0 mM Mg^2+ and 1.0 mM Ca^2+ (PBS). 0.1 ml of a PBS solution (pH 7.2) containing the indicated amount of purified chick brain tenascin was added to some of the inserts. The filters were incubated at room temperature until they dried. […]

monocytes [3] = test: Monocyte migration through Matrigel or Matrigel/tenascin coated filters; conditions: Matrigel alone
Excerpt: Mononuclear cells were isolated by centrifugation of heparinized human blood on Ficoll-Hypaque gradients as described (65, 66). The mononuclear cell fraction was resuspended in RMPI 1640 medium supplemented with 10% pooled human serum or autologous serum and used immediately for monocyte migration studies. For some experiments, monocytes were obtained by centrifugation of whole blood or of white blood cells concentrated from a unit of blood (leukopak), on Nycodenz gradients as described (39). More than 90% of the nucleated cells obtained by this Nycodenz method were monocytes, as assessed by their ability to phagocytose IgG-coated red blood cells.
as §3
Cell culture inserts containing polyethylene terephthalate filters, 8-μm pore size (Becton-Dickinson), were overlaid with 0.1 ml of Matrigel (20-25 μg protein/filter) (Collaborative Research, Bedford, Mass.), and incubated at room temperature until they dried. These Matrigel-coated filters were washed with phosphate buffered saline containing 1.0 mM Mg^2+ and 1.0 mM Ca^2+ (PBS). 0.1 ml of a PBS solution (pH 7.2) containing the indicated amount of purified chick brain tenascin was added to some of the inserts. The filters were incubated at room temperature until they dried. These protein-coated filters were washed again with PBS and used within 12 h for cell migration studies. To prepare collagen I-coated inserts, filters were coated with rat tail collagen I (ICN Biochemicals, Costa, Mesa, Calif.) (400 μg/ml in PBS), by adding 0.1 ml of this solution to an insert and incubating the inserts at room temperature for 24 h. Some of these collagen I-coated filters were then incubated with tenascin as described above.
Monocytes: Cell culture inserts were placed in 16 mm wells containing 0.5 mls of RPMI-1640+HS or AS in the presence or absence of a chemoattractant. 0.5 ml of RPMI-1640+HS or AS serum containing between 2-10×10^5 mononuclear phagocytes was added to the upper chamber of the inserts and the inserts were placed in a humidified CO2 incubator at 37° C. After 24 h the medium in the lower chamber was recovered and its cell content assayed using either a Coulter counter or a hemocytometer. […] Cell counts reported are the average number of cells recovered from the medium in the lower compartment of chemotaxis chambers. Over 90% of the cells in the lower chamber were identified as monocytes based on their morphology, their capacity to phagocytose IgG coated sheep red cells, and their staining with fluorescein-conjugated anti α,β monoclonal antibody (Oncogene Sciences, Uniondale, N.Y.). Unless otherwise indicated, all values are the average of duplicate samples run in parallel in a representative experiment. Each experiment was repeated at least three times with similar results.

PMNs [4] = test: PMN migration through plasma clots (plasma gels); conditions: chemoattractant in lower compartment, 6 hrs
Procedure: as §1
Clotted Plasma: Whole blood was collected and the cellular components were removed by centrifugation. The resulting plasma was mixed with an equal volume of PBS, and 100 μl of this mixture was placed into each insert containing thrombin and allowed to clot as described above. One unit of PPACK in 100 μl PBS then was added and the inserts were washed with 250 μl of PBS.
as §2, with “At the times and concentrations specified, chemoattractants/cytokines were added to the top or bottom compartment in 250 μl of PBSG-HSA. At the end of the incubation, the chambers were shaken to dislodge PMNs from the lower surface of the inserts.” left out, “Both methods gave similar results.” left out, “Unless otherwise indicated, all values reported are the average of six data points from at least 3 independent experiments.” left out

PMNs [5] = test: PMN migration through filters coated with fibrinogen or fibronectin
Procedure: as §1
Fibrinogen or fibronectin: 0.1 ml of PBS containing 100 μg/ml fibrinogen or fibronectin (New York Blood Center, New York, N.Y.), was placed into each insert (pore size 3 μm). Inserts were incubated at 37° C. for 60 min and washed with 250 μl of PBS. Filters coated with fibrinogen or fibronectin were diffusely fluorescent as visualized by epifluorescent microscopy when incubated with the corresponding antibody [fluorescein-labeled anti-fibrinogen, or anti-fibronectin monoclonal antibodies (Cappel, Malvern, Pa.)], while uncoated filters, or filters incubated with fluorescein-labeled antibody of the opposite specificity, were not.
PMNs were prepared from fresh heparinized blood from healthy adult volunteers by sedimentation on Ficoll-Hypaque gradients. Contaminating red blood cells were removed by hypotonic lysis, as described (7). The purity of PMN isolated by this method is >95% as determined by Wright-Giemsa staining (7). […] The medium in each lower compartment was collected and its content of PMNs was determined using either a Coulter Counter or a hemocytometer. […] Counts are expressed as the average number of PMNs that migrated into the lower compartment. […]

CCCCC/C=C\C[C@@H](O)/C=C/C=C/C=C\[C@@H](O)CCCC(=O)O [LTB4, leukotriene B4]
More PMNs migrated through fibrin in response to LTB4 than to IL-8 (PMNs [1]): 25-50% | PMN migration through fibrin gels at supra-optimal concentrations (PMNs [1]; IL-8 at >10^−7 M, supra-optimal LTB4): no indication of PMN desensitization | PMN migration through fibrin gels (in words) (PMNs [1]; chemoattractant in lower compartment, zymosan-activated human plasma 2-10%): migrated | PMN migration through fibrin gels without gradient (PMNs [1]; chemoattractant in upper compartment, or equal concentrations in upper and lower compartments): Few PMNs migrated | Concentration giving maximal PMN migration through fibrin gels (PMNs [1]; in bottom compartment, 6 hrs): 20 nM | PMNs that migrated through fibrin gels within 2 hrs (PMNs [1]; optimal concentration, 2 hrs): Ten | Monocytes that migrated through inserts coated with collagen I (monocytes [2]): 18% | Cultured monocytes that migrated through Matrigel-coated inserts (monocytes [3]): ~15% | Freshly isolated human monocytes that migrated through Matrigel-coated inserts (monocytes [3]): About 20% | PMN migration through plasma gels formed by thrombin treatment of human plasma (PMNs [4]): migrated | PMN migration through filters with adsorbed fibrinogen or fibronectin (PMNs [5]): promoted PMN migration

Reference: patent publication US20020114804A1, “A METHOD OF TREATING INFECTION OF SUTURES AND PROSTHETIC DEVICES” (priority 1996, published 2002)
